Entries after “also recorded” stand apart in the source; their conditions may differ.
Columns and labels:
[1] = tested on: isolated liver mitochondria; assay: Four-parameter mitochondrial physiology (oxygen, Ca2+, membrane potential, swelling); assay type: biochemical, rat; details: 10 μM; for protection against PT induction (swelling, A660): high Ca2+ dose
Method: Mitochondrial physiological parameters were assessed to determine whether these heterocyclics and related compounds interfered direly with mitochondrial functions, and whether such interference might underlie their protection (e.g., respiratory inhibitors can score as protective in some assays, as can uncouplers, but neither would be optimal as a therapeutic candidate). […]; methiothepin [serotonin modulator]; clomipramine [antidepressant]).
FIG. 5 illustrates that the heterocyclic compounds delay PT induction in isolated liver mitochondria without impairing mitochondrial physiology. FIG. 5a depicts oxygen consumption measured by Clark electrode. Oxygen concentration in buffer decreases as the signal decreases. FIG. 5b depicts Ca^2+ transport measured by Ca^2+— selective electrode. The Ca^2+ in buffer increases as the signal increases. FIG. 5c depicts Δψ measured using a TPP^+ electrode. The Δψ parameter decreases as the signal increases. TPP^+ uptake determined by comparison with standard curve after correction for shift in the electrode signal is induced by the compounds examined. […] Changes in Δψ consistent with the slight increases in respiration (equivalent to approximately 5% of maximally uncoupled mitochondria) observed with some drags is likely below the limit of detection. FIG. 5d depicts mitochondrial swelling (absorbance) monitored by a light emitting diode BET) at A660. Mitochondrial are more swollen when signal decreases. Assay in 300 mM sucrose, 2.5 mM K—PO4, 3 mM HERPES, pH 7.2 and 5 mM succinate. Experiments were stopped shortly after oxygen was consumed.
Liver mitochondrial respiration was measured in 250 mM sucrose, 3 mM MgCl2, 0.5 mM EDTA, 10 mM KH2PO4 (pH 7.2). The buffer was equilibrated at 28° C. for not less than an hour before taking measurements. Respiration was initiated by adding mitochondria isolate to the oxygraph cell (0.9±0.2 mg/mL protein). State 3 respiration was initiated with ADP (˜200 μM). The substrates were added at either 5 or 10 mM for α-ketoglutarate and glutamate/malate and 10-20 mM for succinate. Respiration rates were determined using a PC-controlled Strathkelvin Instruments Limited 928 6-Channel Dissolved Oxygen System with two standard Clark-type electrodes fitted to two standard Gilson 1.7-1.8 mL oxygraph cells. Traces were analyzed using the Strathkelvin data acquisition and analysis program included with the instrument. The lines of best fit were calculated and plotted to polarographic traces using the built-in software function based on least squares regression analysis. State 3 respiration rates were calculated when stabilized, i.e., 1.0-1.5 minutes after initiating the state. Respiration before and after ADP consumption was used to calculated RCR. All experiments were carried out in triplicate. All substrates used in mitochondrial respiration experiments were dissolved in respiration buffer (see below) and brought to neutral pH.
The experimental system employed comprises a respiration chamber that can be sealed and placed in a light tight outer chamber. Electrodes and sensors are positioned in a single plane around the outside of the chamber—this system enables simultaneous measurement of oxygen uptake, membrane potential, calcium, and light scattering (absorbance). Oxygen uptake, membrane potential, and Cab are measured using Clark, TPP^+, and Ca^2+-sensitive electrodes, respectively see, Zhu, S., et al., Nature 417:74-78, 2002. A660 is measured using a diode. The chamber is water-jacketed to allow thermostabilization (15-to-1 water volume to sample volume −1 mL, closed chamber). Samples were constantly stirred using a top-mounted magnetic stir bar. Signals measured from electrodes and sensors are recorded on a computer through a commercially available L-154 card. Software has been written to enable data collection and analysis. All experiments were carried out in triplicate. Plots shown in the paper are representative.

[2] = tested on: rabbit models of cerebral and spinal ischemia; details: in vivo; cited from earlier work
[3] = tested on: gerbil ischemia-reperfusion model; details: cited from earlier work
[4] = tested on: apoptosis / PT induction; details: suggested; by reducing mitochondrial oxidative stress; cited from earlier work
[5] = tested on: PT induction in isolated rat liver mitochondria; assay: High throughput spectrophotometric PT-induced swelling assay following Ca2+ challenge; assay type: biochemical; details: for protection against PT induction, score in the initial screen: 10 μM, blind library screen
Text: This library was primarily composed of clinically-approved drugs that could readily be moved to late stage pre-clinical trials and then into accelerated clinical trials. […] The remainder of the library largely consisted of some analogues of these drugs, other known bioactive agents (including natural products, toxins and known inhibitors). Screening of this library was blind and was designed to identify compounds that acted independently of antioxidant activity or ability to chelate Ca^2+ (FIG. 2).
Assays were performed on mitochondria energized with succinate, glutamate/malate, or α-ketoglutarate. […] Subsequent assays (see, Table 1) repeated this approach using inducers optimized to overcome protection mediated by chelators (high C^2+ or antioxidants (high tert-butyl hydroperoxide), based on the rationale that it was unlikely to identify novel drug activities in these categories.
Each of these compounds was re-assayed against three models of PT induction and ranked according to the resistance it conferred to induction.
Bars are coded by each drug's therapeutic class. […] Compounds were assayed in triplicate at 7 concentrations (30, 10, 3, 1, 0.3, 0.1, and 0.03 μM) against three different challenges (50 μM Ca^2+/2.5 mM K—PO4, 25 μM Ca^2+/5 mM K—PO4, 25 μM Ca^2+/2.5 mM K—PO4/100 μM tert-butyl hydroperoxide). […] To address potential inaccuracies introduced by calculation of the area under the curve, protection was also assayed as percent absorbance remaining when absorbance of an unprotected sample had dropped and stabilized. […] “N” for each drug is 7 to 9. Horizontal lines show mean and mean plus one standard deviation.

[6] = molecular target: calmodulin (Homo sapiens, UniProt P0DP23); assay: Calmodulin-dependent calcineurin activity (pNPP hydrolysis); details: 300 μM compound
[7] = tested on: phospholipase A2 (PLA2); details: cited from earlier work
[8] = tested on: humans; details: human, in vivo; cited from earlier work
[9] = tested on: ischemia-reperfusion injury in multiple models; details: cited from earlier work
[10] = tested on: mouse middle cerebral artery occlusion (MCAO); details: in vivo
[11] = tested on: primary cerebrocortical neurons; assay: Oxygen-glucose deprivation (OGD) of cultured primary cerebrocortical neurons; assay type: cell-based, mouse
Method: Heterocyclic-mediated protection was next examined in two models of stroke: (i) oxygen-glucose deprivation (OGD) of cultured primary cerebrocortical neurons, and; (ii) in the mouse, middle cerebral artery occlusion (MCAO)/reperfusion.
Neurotoxicity studies were conducted as previously described. […] Cerebral cortex of mouse embryos at day 15 (E15) were freed from meninges and separated from olfactory bulb and hippocampus.
OGD of primary cerebrocortical neurons is a widely used cell culture model of stroke-related pathology. […] Caspase-3 activation plays a key role in hypoxia/ischemia-mediated injury. To gam insight into the mechanism of promethazine-mediated neuroprotection, it was evaluated whether this compound could inhibit OGD-mediated caspase-3 activation.

## OCCN1CCN(CCCN2c3ccccc3Sc3ccc(C(F)(F)F)cc32)CC1 [Flufenazine]
[1]
  Ca2+ transport: without affecting
  initial oxygen consumption prior to PT induction: without affecting
  resting or recovered Δψ: without affecting
  protection against PT induction (swelling, A660): protected

## CN(C)CCCN1c2ccccc2Sc2ccc(Cl)cc21 [Chlorpromazine]
[2]
  functional impairment: reduced

## CN(C)CCCN1c2ccccc2CCc2ccc(Cl)cc21 [Clomipramine]
[3]; 20 mg/kg
  hippocampal CA1 neuronal damage: protect
[1]
  Ca2+ transport: without affecting
  initial oxygen consumption prior to PT induction: without affecting
  resting or recovered Δψ: without affecting
  protection against PT induction (swelling, A660): protected

## CN1CCN2c3ccccc3Cc3ccccc3C2C1 (stereo not drawn) [Mianserin]
[3]; 5-20 mg/kg
  protection in the gerbil ischemia model: protects

## CSc1ccc2c(c1)N(CCC1CCCCN1C)c1ccccc1S2 (stereo not drawn) [Thioridazine]
[4]
  PT induction: delay
  apoptosis: inhibit

## CC/C(=C(\c1ccccc1)c1ccc(OCCN(C)C)cc1)c1ccccc1 [tamoxifen]
[5]
  protection against PT induction, score in the initial screen: moderate

## CCOC(=O)N1CCC(=C2c3ccc(Cl)cc3CCc3cccnc32)CC1 [Loratadine]
[6]
  calmodulin activity (ratio to untreated plate controls): apparent calmodulin activation

## CN1CCN(CCCN2c3ccccc3Sc3ccc(C(F)(F)F)cc32)CC1 [Trifluoperazine]
[7]
  phospholipase A2 (PLA2) inhibition: can inhibit
[8]
  tolerability in humans: limited utility for long-term use in humans because of its toxicity
[9]
  protection against ischemia-reperfusion injury: protective
[2]
  functional impairment: reduced
[5]
  protection against PT induction, score in the initial screen: moderate

## CN1CCN(CC(=O)N2c3ccccc3C(=O)Nc3cccnc32)CC1 [pirenzepine]
[6]
  calmodulin activity (ratio to untreated plate controls): apparent calmodulin activation

## CSc1ccc2c(c1)C(N1CCN(C)CC1)Cc1ccccc1S2 (stereo not drawn) [Methiothepin]
[1]
  Ca2+ transport: without affecting
  initial oxygen consumption prior to PT induction: without affecting
  resting or recovered Δψ: without affecting
  protection against PT induction (swelling, A660): protected
[5]; ranking among the heterocyclics
  relative potency as PT inhibitor: approximately equivalent to promethazine in potency

## CNCCC=C1c2ccccc2CCc2ccccc21 [Nortriptyline]
[10]
  infarct (stroke) volume: significant reduction
  infarct area in coronal slices compared to the controls: decreases
  neurological examination following cerebral ischemia: improves
  neuroprotection following MCAO: mediates neuroprotection
[11]
  OGD-mediated caspase-3 activation: inhibits; also recorded: attenuated
[11]; Western blot
  OGD mediated cytochrome C release: Inhibiting; also recorded: minimized
[11]; nortriptyline
  OGD cell death as measured by LDH release: preventing cell death; also recorded: reduction

Reference: patent publication US20080119517A1, “COMPOSITIONS AND METHODS FOR PROTECTING AGAINST MITOCHONDRIA COMPONENT-MEDIATED PATHOLOGY” (Cornell Research Foundation, Inc., priority 2003, published 2008)
